Experimental data: patent US20260132129A1 (Genesis Therapeutics, Inc., priority 2022, published 2026)

Target: T1, PI3Kα H1047R (T47D cells) (Homo sapiens, UniProt P42336, H1047R)
T1 construct: endogenous in cells; host or cells: T47D cells
Test: PI3Kα cellular assay: pAKT HTRF in T47D cells after EGF stimulation
Type: cell-based
Settings: for IC50: T47D cells (PI3Kα H1047R), pAKT S473 HTRF, EGF stimulation; for T47D pAKT S473 HTRF IC50 (H1047R): T47D (H1047R) selectivity over SKBR3 (WT): selectivity of T47D (H1047R) over SKBR3 (WT) pAKT IC50
How it was run: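 pAKT read by HTRF in lysates of EGF-stimulated (20 ng/mL, 10 min) T47D H1047R cells. Before stimulation, serum-starved cells (16 h) received compound for 1 h at 37 °C, dosed from 10,000 nM down to 0.5 nM in 3-fold steps.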

T1 sequence (P42336 whole entry H1047R): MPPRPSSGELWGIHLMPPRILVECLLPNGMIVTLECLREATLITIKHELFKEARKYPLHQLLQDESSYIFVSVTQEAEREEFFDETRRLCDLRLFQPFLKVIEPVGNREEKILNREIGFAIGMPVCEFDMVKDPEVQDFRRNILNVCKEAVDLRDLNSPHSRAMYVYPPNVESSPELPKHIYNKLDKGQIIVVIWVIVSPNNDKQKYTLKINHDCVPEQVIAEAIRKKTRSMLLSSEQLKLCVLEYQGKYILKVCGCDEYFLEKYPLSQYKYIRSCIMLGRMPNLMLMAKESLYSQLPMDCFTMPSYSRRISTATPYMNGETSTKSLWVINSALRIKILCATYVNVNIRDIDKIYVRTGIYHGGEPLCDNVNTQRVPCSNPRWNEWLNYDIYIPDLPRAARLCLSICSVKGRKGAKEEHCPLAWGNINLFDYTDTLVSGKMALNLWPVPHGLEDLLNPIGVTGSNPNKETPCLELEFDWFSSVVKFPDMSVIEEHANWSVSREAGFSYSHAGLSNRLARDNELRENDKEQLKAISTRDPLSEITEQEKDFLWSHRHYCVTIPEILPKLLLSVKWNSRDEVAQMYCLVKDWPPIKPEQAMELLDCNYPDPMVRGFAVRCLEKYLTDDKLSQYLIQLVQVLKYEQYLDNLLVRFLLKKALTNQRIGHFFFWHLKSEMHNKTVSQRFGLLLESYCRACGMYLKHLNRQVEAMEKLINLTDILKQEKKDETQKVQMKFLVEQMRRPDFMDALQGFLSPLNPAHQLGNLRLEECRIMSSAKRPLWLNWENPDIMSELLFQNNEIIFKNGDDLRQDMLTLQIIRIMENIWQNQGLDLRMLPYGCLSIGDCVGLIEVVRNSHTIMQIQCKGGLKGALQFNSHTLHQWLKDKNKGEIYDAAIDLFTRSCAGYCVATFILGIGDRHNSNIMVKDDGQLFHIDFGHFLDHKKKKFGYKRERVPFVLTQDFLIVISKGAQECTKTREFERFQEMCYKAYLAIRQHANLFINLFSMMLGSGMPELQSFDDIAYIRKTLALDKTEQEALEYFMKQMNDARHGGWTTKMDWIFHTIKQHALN
T1 sequence (P27986 whole entry partner): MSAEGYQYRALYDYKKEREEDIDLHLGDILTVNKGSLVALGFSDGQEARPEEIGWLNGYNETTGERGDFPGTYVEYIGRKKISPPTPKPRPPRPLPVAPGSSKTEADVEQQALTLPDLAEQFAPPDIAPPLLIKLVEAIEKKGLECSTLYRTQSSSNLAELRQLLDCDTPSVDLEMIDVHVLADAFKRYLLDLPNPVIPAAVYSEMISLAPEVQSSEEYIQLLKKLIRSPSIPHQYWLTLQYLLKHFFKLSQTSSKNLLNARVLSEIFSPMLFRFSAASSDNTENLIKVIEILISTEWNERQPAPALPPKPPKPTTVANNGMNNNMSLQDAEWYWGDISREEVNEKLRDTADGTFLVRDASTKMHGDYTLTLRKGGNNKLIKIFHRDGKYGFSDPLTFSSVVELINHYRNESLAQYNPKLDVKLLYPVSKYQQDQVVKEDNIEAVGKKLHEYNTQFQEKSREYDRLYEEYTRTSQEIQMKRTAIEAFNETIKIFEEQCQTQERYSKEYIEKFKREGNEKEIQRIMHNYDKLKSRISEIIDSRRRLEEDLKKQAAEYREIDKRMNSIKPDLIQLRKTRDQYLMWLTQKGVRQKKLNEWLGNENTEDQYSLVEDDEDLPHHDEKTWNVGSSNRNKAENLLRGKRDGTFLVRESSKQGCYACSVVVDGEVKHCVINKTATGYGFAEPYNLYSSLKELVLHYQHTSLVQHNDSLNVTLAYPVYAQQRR

| Compound | IC50 [nM] | T47D pAKT S473 HTRF IC50 (H1047R): T47D (H1047R) selectivity over SKBR3 (WT) |
| --- | --- | --- |
| Cc1cc([C@H](C)Nc2ccccc2C(=O)O)c2nc(-c3ccc4c(c3)CC(F)(F)C4)cc(=O)n2c1 [Compound 854] | > 2000 | – |
| Cc1cc(C(C)Nc2ccccc2C(=O)O)c2nc(-c3ccc4c(n3)c(C)nn4C)cc(=O)n2c1 (stereo not drawn) [Compound 858] | 100 to 500 | A (A denotes >20-fold) |
| Cc1cc(C(C)Nc2ccccc2C(=O)O)c2nc(-c3ccc4c(n3)c(C)nn4C)c(C)c(=O)n2c1 (stereo not drawn) [Compound 859] | 100 to 500 | A (A denotes >20-fold) |
| COc1cccc(NC(C)c2cc(C)cn3c(=O)cc(N4Cc5ccccc5C4)nc23)c1CO (stereo not drawn) [Compound 865] | > 2000 | C (C denotes ≤5-fold) |
| Cc1cc([C@@H](C)Nc2ccccc2C(=O)O)c2nc(N3C[C@H](C)C[C@H](C(F)F)C3)cc(=O)n2c1 [Compound 868] | 500 to 2000 | B (B denotes 20-fold≥value>5-fold) |
| Cc1cc(C(C)Nc2ccccc2C(=O)O)c2nc(-c3ccc4c(c3)c(N)nn4C3CC3)cc(=O)n2c1 (stereo not drawn) [Compound 870] | 100 to 500 | A (A denotes >20-fold) |
| C=CC(=O)Nc1ccc(C(=O)O)c(N[C@H](C)c2cc(C)cn3c(=O)cc(N4CCOCC4)nc23)c1 [Compound 872] | > 2000 | C (C denotes ≤5-fold) |
| C=CC(=O)Nc1ccc(C(=O)O)c(N[C@@H](C)c2cc(C)cn3c(=O)cc(N4CCOCC4)nc23)c1 [Compound 873] | > 2000 | C (C denotes ≤5-fold) |
| Cc1cc([C@@H](C)Nc2ccccc2-c2ccnnc2)c2nc(N3Cc4ccccc4C3)c(C3CC3)c(=O)n2c1 [Compound 874] | > 2000 | – |
| Cc1cc([C@H](C)Nc2ccccc2-c2ccnnc2)c2nc(N3Cc4ccccc4C3)c(C3CC3)c(=O)n2c1 [Compound 875] | < 100 | A (A denotes >20-fold) |
| Cc1cc([C@@H](C)NCc2cccnn2)c2nc(N3Cc4ccccc4C3)cc(=O)n2c1 [Compound 876] | > 2000 | C (C denotes ≤5-fold) |
| Cc1cc(C(C)Nc2ccccc2-c2nnn[nH]2)c2nc(N3Cc4ccccc4C3)cc(=O)n2c1 (stereo not drawn) [Compound 877] | 100 to 500 | A (A denotes >20-fold) |
| Cc1cc(C(C)Nc2ccccc2C(=O)O)c2nc(-c3ccc4c(c3)c(C)nn4C3CC3)cc(=O)n2c1 (stereo not drawn) [Compound 890] | < 100 | A (A denotes >20-fold) |
| CC(Nc1ccccc1C(=O)O)c1cc(C(F)(F)F)cn2c(=O)cc(N3C[C@@H](C)O[C@@H](C)C3)nc12 (stereo partly drawn) [Compound 898] | – | A (A denotes >20-fold) |
| Cc1cc(C(C)Nc2ccccc2C(=O)O)c2nc(C3C[C@@H](C)O[C@@H](C)C3)c(C)c(=O)n2c1 (stereo partly drawn) [Compound 901] | – | A (A denotes >20-fold) |
| Cc1cc([C@H](C)Nc2ccccc2C(=O)O)c2nc(-c3ccc4c(c3)c(C)cn4C)c(C)c(=O)n2c1 [Compound 903] | 500 to 2000 | B (B denotes 20-fold≥value>5-fold) |
| Cc1cc(C(C)Nc2ccccc2C(=O)O)c2nc(N3CC4(CCOCC4)C3)c(C)c(=O)n2c1 (stereo not drawn) [Compound 904] | 100 to 500 | A (A denotes >20-fold) |
| Cc1cc([C@@H](C)N[C@@H]2CCCC[C@@H]2C(=O)O)c2nc(N3CCOCC3)cc(=O)n2c1 [Compound 905] | > 2000 | C (C denotes ≤5-fold) |
| Cc1cc([C@H](C)N[C@@H]2CCCC[C@@H]2C(=O)O)c2nc(N3CCOCC3)cc(=O)n2c1 [Compound 906] | > 2000 | C (C denotes ≤5-fold) |
| Cc1c(N2C[C@@H](C)O[C@@H](C)C2)nc2c([C@@H](C)Nc3ccccc3C(=O)O)cc(C(F)(F)F)cn2c1=O [Compound 907] | – | C (C denotes ≤5-fold) |
| Cc1cc([C@H](C)Nc2ccccc2-c2ccnnc2)c2nc(N3Cc4ccccc4C3)c(C)c(=O)n2c1 [Compound 909] | > 2000 | C (C denotes ≤5-fold) |
| Cc1cc([C@H](C)Nc2ccccc2C(=O)O)c2ncc(Cc3ccc(F)cc3)c(=O)n2c1 [Compound 914] | > 2000 | C (C denotes ≤5-fold) |
| Cc1cc(C(C)Nc2ccccc2C(=O)O)c2nc(N3C[C@@H](C)O[C@@H](C)C3)c(C)c(=O)n2c1 (stereo partly drawn) [Compound 915] | 100 to 500 | A (A denotes >20-fold) |

Now from value to compound:

| IC50 [nM] | T47D pAKT S473 HTRF IC50 (H1047R): T47D (H1047R) selectivity over SKBR3 (WT) | Compound |
| --- | --- | --- |
| – | C (C denotes ≤5-fold) | Cc1cc([C@H](C)Nc2ccccc2C(=O)O)c2nc(N3CC4(CCNCC4)C3)c(C)c(=O)n2c1 [Compound 917] |
| > 2000 | C (C denotes ≤5-fold) | Cc1cc(C(C)Nc2cccc3oc(=O)[nH]c23)c2nc(N3CCOCC3)cc(=O)n2c1 (stereo not drawn) [Compound 918] |
| > 2000 | C (C denotes ≤5-fold) | Cc1cc([C@H](C)Nc2ccccc2C(=O)O)c2nc(-c3ccc4c(c3)c(N(C)C)nn4C)c(C)c(=O)n2c1 [Compound 920] |
| > 2000 | C (C denotes ≤5-fold) | CC(Nc1ccccc1C(=O)O)c1cc(C(F)(F)F)cn2c(=O)cc(N3Cc4ccccc4C3)nc12 (stereo not drawn) [Compound 921] |
| < 100 | A (A denotes >20-fold) | CC(Nc1ccccc1C(=O)O)c1cc(C(F)(F)F)cn2c(=O)cc(N3Cc4ccccc4C3)nc12 (stereo not drawn) [Compound 922] |
| – | B (B denotes 20-fold≥value>5-fold) | Cc1cc([C@@H](C)Nc2ccccc2C(=O)O)c2nc(-c3ccc4c(C)n[nH]c4c3)cc(=O)n2c1 [Compound 923] |
| 100 to 500 | A (A denotes >20-fold) | Cc1cc([C@@H](C)Nc2ccccc2C(=O)O)c2nc(C3C[C@@H](C)O[C@@H](C)C3)cc(=O)n2c1 (stereo partly drawn) [Compound 924] |
| 500 to 2000 | B (B denotes 20-fold≥value>5-fold) | Cc1cc([C@H](C)Nc2ccccc2C(=O)O)c2nc(C3C[C@@H](C)O[C@@H](C)C3)cc(=O)n2c1 (stereo partly drawn) [Compound 925] |
| > 2000 | C (C denotes ≤5-fold) | Cc1cc(C(C)Nc2ccccc2C(=O)C(F)(F)F)c2nc(N3Cc4ccccc4C3)c(C)c(=O)n2c1 (stereo not drawn) [Compound 926] |
| < 100 | A (A denotes >20-fold) | Cc1cc([C@@H](C)Nc2ccccc2C(=O)O)c2nc(-c3ccc4c(C)nn(C)c4c3)c(C)c(=O)n2c1 [Compound 927] |
| > 2000 | C (C denotes ≤5-fold) | Cc1cc([C@H](C)Nc2ccccc2C(=O)O)c2nc(-c3ccc4c(C)nn(C)c4c3)c(C)c(=O)n2c1 [Compound 928] |
| > 2000 | C (C denotes ≤5-fold) | Cc1cc(C(C)CNc2ccccc2C(=O)O)c2nc(N3CCOCC3)cc(=O)n2c1 (stereo not drawn) [Compound 929] |
| > 2000 | C (C denotes ≤5-fold) | Cc1cc(C(C)Nc2cccc(CO)c2C(=O)O)c2nc(-c3ccc4c(c3)c(C)nn4C)cc(=O)n2c1 (stereo not drawn) [Compound 933] |
| – | C (C denotes ≤5-fold) | Cc1cc([C@H](C)Nc2ccccc2C(=O)O)c2nc(N3C[C@H]4C[C@@H](C5CCN(S(=O)(=O)N(C)C)CC5)C[C@H]4C3)cc(=O)n2c1 [Compound 935] |
| > 2000 | C (C denotes ≤5-fold) | C=CC(=O)Nc1cc(C(C)Nc2ccccc2C(=O)O)c2nc(N3Cc4ccccc4C3)cc(=O)n2c1 (stereo not drawn) [Compound 939] |
| > 2000 | C (C denotes ≤5-fold) | Cc1cc([C@@H](C)Nc2cccc(CO)c2C(=O)O)c2nc(-c3ccc4c(c3)c(C)nn4C)cc(=O)n2c1 [Compound 940] |
| > 2000 | C (C denotes ≤5-fold) | Cc1cc([C@H](C)Nc2cccc(CO)c2C(=O)O)c2nc(-c3ccc4c(c3)c(C)nn4C)cc(=O)n2c1 [Compound 941] |
| 100 to 500 | A (A denotes >20-fold) | Cc1cc([C@H](C)Nc2cccnc2-c2ccnnc2)c2nc(N3Cc4ccccc4C3)cc(=O)n2c1 [Compound 943] |
| 100 to 500 | A (A denotes >20-fold) | Cc1cc(C(C)Nc2ccccc2S(N)(=O)=O)c2nc(-c3ccc4c(c3)c(C)nn4C3CC3)c(C)c(=O)n2c1 (stereo not drawn) [Compound 944] |
| < 100 | A (A denotes >20-fold) | Cc1cc([C@@H](C)Nc2ccccc2C(=O)O)c2nc(-c3ccc4[nH]c(=O)sc4c3)c(C)c(=O)n2c1 [Compound 945] |
| 500 to 2000 | B (B denotes 20-fold≥value>5-fold) | Cc1cc([C@H](C)Nc2ccccc2C(=O)O)c2nc(-c3ccc4[nH]c(=O)sc4c3)c(C)c(=O)n2c1 [Compound 946] |
| 500 to 2000 | B (B denotes 20-fold≥value>5-fold) | Cc1cc([C@H](C)Nc2ccccc2C(=O)O)c2nc(-c3ccc(F)c(C#N)c3)c(C)c(=O)n2c1 [Compound 948] |
| > 2000 | C (C denotes ≤5-fold) | Cc1cc([C@H](C)Nc2ccccc2C(=O)O)c2nc(-c3cccnc3)c(C)c(=O)n2c1 [Compound 950] |
